Here are results for 18 compounds from ChEMBL document CHEMBL5665443, “Enzyme Inhibitor Single Concentration assay results for EUbOPEN Chemogenomics Library” (2024).

Test [1] addresses G/T mismatch-specific thymine DNA glycosylase (Homo sapiens) (UniProt Q13569). The note with it: Compound Concentration 10.0 uM, Hit No.
Description: Inhibition of TDG by quantifying inhibition of TDG-mediated cleavage and dissociation of quenched duplex DNA oligonucleotides, measured as fluorescence at 594 nm. To generate a functional strand incision and increase turn-over this assay is coupled to APE1.
The target in test [2] is T1, Single-strand selective monofunctional uracil DNA glycosylase (Homo sapiens) (UniProt Q53HV7).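 Note: enzymatic SMUG1 assay coupled with APE1, reading fluorescence at 594 nm released when a quenched double-stranded DNA oligonucleotide substrate is cleaved and separated.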
T1 sequence (whole entry): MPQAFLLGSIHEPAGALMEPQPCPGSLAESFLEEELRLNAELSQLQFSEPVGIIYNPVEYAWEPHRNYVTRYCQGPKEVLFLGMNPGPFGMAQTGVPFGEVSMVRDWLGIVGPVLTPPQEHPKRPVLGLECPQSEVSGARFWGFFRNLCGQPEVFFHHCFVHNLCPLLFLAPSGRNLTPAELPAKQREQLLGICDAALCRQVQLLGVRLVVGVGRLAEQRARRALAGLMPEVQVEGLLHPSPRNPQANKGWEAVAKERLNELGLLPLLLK
The note with it: Compound Concentration 10.0 uM, Hit No.
Description: Inhibition of SMUG1 by quantifying inhibition of SMUG1-mediated cleavage and dissociation of quenched duplex DNA oligonucleotides, measured as fluorescence at 594 nm. To generate a functional strand incision and increase turn-over this assay is coupled to APE1.

Test [3] deals with T2, Adenine DNA glycosylase (Homo sapiens) (UniProt Q9UIF7).
T2 sequence (whole entry): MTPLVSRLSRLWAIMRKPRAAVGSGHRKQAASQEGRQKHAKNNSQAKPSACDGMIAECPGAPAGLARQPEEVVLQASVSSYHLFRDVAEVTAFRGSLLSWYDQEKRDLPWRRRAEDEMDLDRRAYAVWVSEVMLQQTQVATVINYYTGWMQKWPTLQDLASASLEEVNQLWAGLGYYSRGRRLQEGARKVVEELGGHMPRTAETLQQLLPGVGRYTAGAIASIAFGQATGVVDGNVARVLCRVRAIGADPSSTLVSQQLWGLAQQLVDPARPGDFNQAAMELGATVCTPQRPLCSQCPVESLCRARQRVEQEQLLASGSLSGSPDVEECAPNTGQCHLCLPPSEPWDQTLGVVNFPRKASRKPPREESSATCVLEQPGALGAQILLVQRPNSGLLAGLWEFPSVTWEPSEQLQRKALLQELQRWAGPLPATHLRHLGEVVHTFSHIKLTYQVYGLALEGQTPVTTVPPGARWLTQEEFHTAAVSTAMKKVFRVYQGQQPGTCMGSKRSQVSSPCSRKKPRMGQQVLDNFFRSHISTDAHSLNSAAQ
As to conditions: Compound Concentration 10.0 uM, Hit No.
Description: Inhibition of MUTYH by quantifying inhibition of MUTYH-mediated cleavage and dissociation of quenched duplex DNA oligonucleotides, measured as fluorescence at 594 nm. To generate a functional strand incision and increase turn-over this assay is coupled to APE1.

For test [4], the target named is Methyl-CpG-binding domain protein 4 (Homo sapiens) (UniProt O95243). As to conditions: Compound Concentration 10.0 uM, Hit No.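 Note: MBD4 activity read as fluorescence at 594 nm from cleavage and release of a quenched duplex DNA oligonucleotide, with APE1 coupled to incise the strand and raise turnover.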
Methyl-CpG-binding domain protein 4 (Homo sapiens), sequence (O95243 whole entry, the tested form may be a part): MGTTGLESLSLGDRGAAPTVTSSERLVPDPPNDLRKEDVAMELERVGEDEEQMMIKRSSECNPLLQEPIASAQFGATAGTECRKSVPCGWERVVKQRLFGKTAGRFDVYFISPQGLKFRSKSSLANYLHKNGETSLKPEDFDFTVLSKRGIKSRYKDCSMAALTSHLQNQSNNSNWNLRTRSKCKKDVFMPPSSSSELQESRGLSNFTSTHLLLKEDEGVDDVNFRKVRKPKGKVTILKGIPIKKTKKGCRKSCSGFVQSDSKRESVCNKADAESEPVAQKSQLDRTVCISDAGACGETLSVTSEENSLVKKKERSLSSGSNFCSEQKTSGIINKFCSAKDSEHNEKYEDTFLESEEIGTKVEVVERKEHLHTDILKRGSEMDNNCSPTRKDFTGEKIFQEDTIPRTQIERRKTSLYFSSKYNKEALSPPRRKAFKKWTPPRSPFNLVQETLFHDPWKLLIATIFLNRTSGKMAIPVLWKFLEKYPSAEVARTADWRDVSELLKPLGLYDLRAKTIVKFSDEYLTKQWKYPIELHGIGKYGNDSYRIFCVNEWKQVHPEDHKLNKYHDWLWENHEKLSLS
Description: Inhibition of MBD4 by quantifying inhibition of MBD4-mediated cleavage and dissociation of quenched duplex DNA oligonucleotides, measured as fluorescence at 594 nm. To generate a functional strand incision and increase turn-over this assay is coupled to APE1.
Test [5] deals with DNA-3-methyladenine glycosylase (Homo sapiens) (UniProt P29372). As to conditions: Compound Concentration 10.0 uM, Hit No.
DNA-3-methyladenine glycosylase (Homo sapiens), sequence (P29372 whole entry): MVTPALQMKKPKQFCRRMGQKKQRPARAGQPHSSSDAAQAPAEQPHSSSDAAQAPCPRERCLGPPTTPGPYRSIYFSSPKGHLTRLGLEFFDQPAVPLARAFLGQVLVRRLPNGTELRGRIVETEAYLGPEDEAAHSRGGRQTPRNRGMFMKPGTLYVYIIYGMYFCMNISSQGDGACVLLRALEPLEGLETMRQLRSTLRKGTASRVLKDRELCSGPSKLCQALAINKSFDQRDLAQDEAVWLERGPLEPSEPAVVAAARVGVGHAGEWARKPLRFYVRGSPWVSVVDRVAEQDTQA
Description: Inhibition of MPG by quantifying inhibition of MPG-mediated cleavage and dissociation of quenched duplex DNA oligonucleotides, measured as fluorescence at 594 nm. To generate a functional strand incision and increase turn-over this assay is coupled to APE1.
The target in test [6] is Endonuclease 8-like 1 (Homo sapiens) (UniProt Q96FI4). As to conditions: Compound Concentration 10.0 uM, Hit No.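 Note: fluorescence at 594 nm from quenched duplex DNA oligonucleotides released by NEIL1 cleavage and strand separation, reported as reduction of this enzyme activity.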
Endonuclease 8-like 1 (Homo sapiens), sequence (Q96FI4 whole entry): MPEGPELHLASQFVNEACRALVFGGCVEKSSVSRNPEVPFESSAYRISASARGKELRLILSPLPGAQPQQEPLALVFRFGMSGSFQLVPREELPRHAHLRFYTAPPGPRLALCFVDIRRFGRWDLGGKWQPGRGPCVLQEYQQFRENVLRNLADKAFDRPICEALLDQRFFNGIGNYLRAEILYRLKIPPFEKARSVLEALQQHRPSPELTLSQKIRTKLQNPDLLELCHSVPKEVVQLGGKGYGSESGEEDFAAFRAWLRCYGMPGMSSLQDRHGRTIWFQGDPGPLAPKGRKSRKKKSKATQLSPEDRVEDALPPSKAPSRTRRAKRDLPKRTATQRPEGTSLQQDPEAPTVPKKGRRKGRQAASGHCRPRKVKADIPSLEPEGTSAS
Description: Inhibition of NEIL1 by quantifying inhibition of NEIL1-mediated cleavage and dissociation of quenched duplex DNA oligonucleotides, measured as fluorescence at 594 nm.
The target of test [7] is N-glycosylase/DNA lyase (Homo sapiens) (UniProt O15527). As to conditions: Compound Concentration 10.0 uM.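 Note: OGG1 cleavage of a quenched duplex DNA oligonucleotide, coupled to APE1 for strand incision, read as fluorescence at 594 nm.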
N-glycosylase/DNA lyase (Homo sapiens), sequence (O15527 whole entry): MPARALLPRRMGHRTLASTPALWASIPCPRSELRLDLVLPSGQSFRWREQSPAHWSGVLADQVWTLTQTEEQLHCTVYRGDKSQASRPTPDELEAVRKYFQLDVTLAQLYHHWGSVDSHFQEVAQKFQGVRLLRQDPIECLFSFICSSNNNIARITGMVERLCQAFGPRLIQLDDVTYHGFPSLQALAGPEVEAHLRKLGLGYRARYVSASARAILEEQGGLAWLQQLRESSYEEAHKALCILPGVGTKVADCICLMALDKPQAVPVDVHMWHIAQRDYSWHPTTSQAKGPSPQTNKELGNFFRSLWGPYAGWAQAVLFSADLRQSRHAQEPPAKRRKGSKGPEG
Description: Inhibition of OGG1 by quantifying inhibition of OGG1-mediated cleavage and dissociation of quenched duplex DNA oligonucleotides, measured as fluorescence at 594 nm. To generate a functional strand incision and increase turn-over this assay is coupled to APE1.
The target of test [8] is T3, Endonuclease 8-like 2 (Homo sapiens) (UniProt Q969S2).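 Note: fluorescence at 594 nm reports NEIL2 cutting and release of a quenched double-stranded DNA oligo substrate, reduced signal read as inhibition.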
T3 sequence (whole entry): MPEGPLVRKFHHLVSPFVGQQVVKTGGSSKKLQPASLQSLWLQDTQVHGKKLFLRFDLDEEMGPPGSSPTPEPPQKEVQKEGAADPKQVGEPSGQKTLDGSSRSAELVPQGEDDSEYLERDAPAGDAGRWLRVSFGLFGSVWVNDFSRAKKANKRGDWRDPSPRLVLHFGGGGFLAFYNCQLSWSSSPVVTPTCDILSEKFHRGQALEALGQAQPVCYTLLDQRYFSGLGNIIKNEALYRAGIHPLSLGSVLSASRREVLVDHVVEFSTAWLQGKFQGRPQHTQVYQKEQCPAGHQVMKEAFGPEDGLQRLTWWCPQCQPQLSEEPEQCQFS
As to conditions: Compound Concentration 10.0 uM, Hit No.
Description: Inhibition of NEIL2 by quantifying inhibition of NEIL2-mediated cleavage and dissociation of quenched duplex DNA oligonucleotides, measured as fluorescence at 594 nm.

The target in test [9] is Uracil-DNA glycosylase (Homo sapiens) (UniProt P13051). As to conditions: Compound Concentration 10.0 uM, Hit No.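 Note: UNG excision on a quenched double-stranded DNA oligo probe, with APE1 added for strand incision and turnover, read as fluorescence at 594 nm as strands separate.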
Uracil-DNA glycosylase (Homo sapiens), sequence (P13051 whole entry): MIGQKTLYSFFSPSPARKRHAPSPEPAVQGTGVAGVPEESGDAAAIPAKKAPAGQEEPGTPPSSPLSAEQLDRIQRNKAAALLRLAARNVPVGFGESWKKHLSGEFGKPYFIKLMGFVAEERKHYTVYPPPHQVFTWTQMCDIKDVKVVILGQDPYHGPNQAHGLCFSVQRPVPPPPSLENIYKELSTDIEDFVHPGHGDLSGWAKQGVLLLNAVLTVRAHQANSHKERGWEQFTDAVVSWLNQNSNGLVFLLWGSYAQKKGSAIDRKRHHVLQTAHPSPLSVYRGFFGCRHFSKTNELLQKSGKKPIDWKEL
Description: Inhibition of UNG by quantifying inhibition of UNG-mediated cleavage and dissociation of quenched duplex DNA oligonucleotides, measured as fluorescence at 594 nm. To generate a functional strand incision and increase turn-over this assay is coupled to APE1.

G/T mismatch-specific thymine DNA glycosylase (Homo sapiens), sequence (Q13569 whole entry): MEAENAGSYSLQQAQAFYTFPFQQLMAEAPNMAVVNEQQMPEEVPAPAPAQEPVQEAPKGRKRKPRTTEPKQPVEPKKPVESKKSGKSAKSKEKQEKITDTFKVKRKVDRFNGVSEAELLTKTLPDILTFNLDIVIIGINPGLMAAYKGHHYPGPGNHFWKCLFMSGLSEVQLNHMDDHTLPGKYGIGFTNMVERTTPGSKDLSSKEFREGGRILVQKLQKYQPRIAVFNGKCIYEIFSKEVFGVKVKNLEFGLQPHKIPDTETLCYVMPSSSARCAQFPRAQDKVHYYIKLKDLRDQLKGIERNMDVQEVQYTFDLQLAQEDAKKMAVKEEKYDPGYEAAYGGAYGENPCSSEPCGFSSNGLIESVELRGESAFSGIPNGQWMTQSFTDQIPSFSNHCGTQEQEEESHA

Take `CCc1cc2c(c(CC)n1)CCC(=O)N2Cc1ccc(-c2ccccc2-c2nnn[nH]2)cc1`: the inhibition – broadly, the change of the read-out against control, counted positive when it falls – is 13.7% in [1]; -8.27% in test [2]; 24.1% in test [3]; 2.76% in test [4]; 6.08% in test [5]; 13.9% in [6]. Besides, the inhibition in test [7] (Hit No) stood at 6.16%; in test [8], 2.26%.
In the case of `Cc1nnc2n1-c1sc(CCC(=O)N3CCOCC3)cc1C(c1ccccc1Cl)=NC2`, the inhibition in [1] was 14.6%; in test [9], -6.5%; in test [2], -7.88%; in test [3], 16.7%; in [4] it was -1.19%; in [5], -4.33%. Moreover, the inhibition turned out to be 5.28% in [6], 0.211% in test [7] (Hit No) and 7.25% in test [8].
Regarding `C/C(=N\NC(=O)[C@@H]1C(=O)NC[C@H]1c1ccccc1)c1cccc(Br)c1`, the inhibition was 17.2% in [1]; -1.98% in [9]; 9.22% in test [2]; 11% in test [3]; 0.963% in test [4]; -1.9% in test [5]. Besides, the figures for the inhibition in test [6], in [7] (Hit No) and in test [8] were -1.98%, -0.141% and 6.5%, respectively.
As to `CC[C@@H]1C(=O)N(C)c2cnc(Nc3ccc(C(=O)NC4CCN(C)CC4)cc3OC)nc2N1C1CCCC1`, the inhibition is 69.8% in [1]; 13.3% in test [9]; 23.4% in test [2]; 38.1% in test [3]; 33% in test [4]; 7.81% in test [5]. Moreover, the inhibition is 2.78% in test [6] and -5.59% in test [7] (Hit No).
As for `CSc1ccc(C(=O)N[C@@H]2CCCC[C@@H]2NC(=O)CNC(=O)c2cc(C(F)(F)F)ccc2NC(=O)NC(C)C)cc1`, the inhibition was 20.7% in test [1]; -0.695% in [9]; 0.0151% in [2]; 2.07% in test [3]; 13.3% in test [4]; -1.67% in test [5]. In addition, the inhibition was 0.537% in test [6], -0.224% in [7] (Hit No) and 14.5% in test [8].
In the case of `COc1ccc2[nH]cc(CCNC(C)=O)c2c1`, the inhibition was 5.88% in [1]; -7.83% in test [9]; -7.74% in test [2]; 19.4% in test [3]; -1.65% in [4]; -3.95% in test [5]. The inhibition in [6] was 1.13%; in test [7] (Hit No), -4.66%; in [8] it was 1.51%.
Take `CC(COc1ccccc1)N(CCCl)Cc1ccccc1` (centres undefined): the inhibition was 9.17% in test [1]; -8.75% in [2]; 20.2% in test [3]; 6.02% in test [4]; 8.43% in test [5]; -3.32% in [6]. Further, the inhibition in test [7] (Hit Yes) was 41.7%; in test [8], 5.01%.
For `COCCn1c(C)c(C)s/c1=N\C(=O)C1C(C)(C)C1(C)C`, the inhibition was 7.06% in [1]; -7.32% in test [9]; -0.421% in test [2]; 20.8% in test [3]; -7.23% in test [4]; -8.69% in test [5]. In addition, the inhibition in test [6] amounted to 3.06%; in test [7] (Hit No) it was 5.33%; in test [8], 1.51%.
In the case of `COc1ccc(Br)cc1S(=O)(=O)NC(=O)/C=C/c1ccccc1Cc1ccc2ccccc2c1`, the inhibition in [1] is 2.91%; in [2] it was -2.31%; in test [3] it was 5.65%; in test [4], 18%; in test [5], -3.79%; in test [6], 0.537%. Moreover, the inhibition in [7] (Hit No) came to 30.2%; in test [8], 6.5%.
For the compound `CN(C)c1ccnc2sc3c(=O)n(N4CCCCCC4)cnc3c12`, the inhibition in [1] is 5.33%; in test [2], -6.77%; in test [3] it was 6.93%; in test [4] it was -2.87%; in [5], 2.57%; in test [6] it was 7.65%. The inhibition in test [7] (Hit No) came to 18.5%; in test [8], 16%.
Consider `CC(C)N(CCCCOCC(=O)NS(C)(=O)=O)c1cnc(-c2ccccc2)c(-c2ccccc2)n1`, for which the inhibition was 51% in test [1]; -1.68% in [2]; 47.5% in [3]; 80.6% in test [4]; 55.8% in [5]; 9.29% in test [6]. The inhibition is 17.1% in test [7] (Hit No) and 6.75% in test [8].
On to `COc1c(Nc2ccc(S(C)(=O)=O)nc2C)ncnc1OC1CCN(C(=O)OC(C)C)CC1`, for which the inhibition in test [1] is -5.57%; in test [2], -7.64%; in test [3], 16.4%; in test [4] it was -6.99%; in test [5] it was -8.34%; in [6], -6.28%. For the same compound, the inhibition in test [7] (Hit No) is -1.26%; in test [8] it was 6%.
`Cc1cc(-c2ccc3c(c2)CC[C@H]3N2CC3(CCN(C(=O)Cc4cn5cc(C)sc5n4)CC3)C2)ncn1`: the inhibition in [1] was 6.67%; in test [9], -6.41%; in test [2] it was -0.24%; in test [3], 0.491%; in [4] it was 2.75%; in test [5], -2.4%. The inhibition was -1.18% in test [6] and -7.69% in test [7] (Hit No).
With `CCCCC#Cc1nc(NC)c2ncn([C@@H]3O[C@H](CO)[C@@H](O)[C@H]3O)c2n1`, the inhibition in [1] is -7.72%; in test [2], -0.13%; in test [3], -0.235%; in test [4] it was 0.324%; in [5], -9.85%; in test [6] it was -4.5%. For the same compound, the inhibition was -7.52% in test [7] (Hit No) and 5.51% in test [8].
Regarding `CCCCc1oc2ccccc2c1C(=O)c1cc(I)c(OCCN(CC)CC)c(I)c1`, the inhibition in test [1] was 30.6%; in test [9], 1.42%; in test [2] it was 15.3%; in test [3], -0.487%; in test [4], 28.2%; in test [5], 5.3%. Further, the inhibition in [7] (Hit No) was 0.672%; in test [8], -6.36%.
Take `CC(=O)Nc1nc2c(Oc3cc(-c4ccc(C(F)(F)F)cc4)ncn3)cccc2s1`: the inhibition in test [1] was -3.88%; in [9] it was -3.19%; in test [2], -4.87%; in test [3] it was -8.12%; in [4], 1.85%; in [5], 11.2%. Further, the results for the inhibition in test [6] and in [8] were 4.31% and -1.88%, respectively.
Regarding `CC(C)NC(=O)c1ccc(C#Cc2ccncc2)cn1`, the inhibition is 8.93% in test [1]; 2.68% in [2]; 12.7% in [3]; -1.07% in [4]; -5.61% in test [5]; 7.51% in test [6]. Besides, the values for the inhibition in test [7] (Hit No) and in test [8] were 2.41% and 5.76%, respectively.
For `COc1cc(C(=O)N(CCCc2ccccc2)Cc2ccc(CC(=O)O)cc2)cc(OC)c1C`, the inhibition was 17.3% in [1]; -4.44% in test [2]; 20.4% in test [3]; 21.5% in [4]; 2.65% in test [5]; -1.83% in test [6]. For the same compound, the inhibition is -6.84% in [7] (Hit No) and -7.97% in test [8].
